In US6818226B2, “Dermal penetration enhancers and drug delivery systems involving same” (ACRUX DDS Pty. Ltd., priority 1996, dated 2004):
Like-named read-outs stand apart in the source and are kept apart here. Marks after values point to notes of the source that are not given here.

Tests used:
[1] = Flux of oestradiol, progesterone, norethisterone acetate, ibuprofen, flurbiprofen across shed snake skin, 5 microL/cm^2 (Example 11); type: in vitro ADME; details: Children's python
[2] = Hydroquinone penetration across full-thickness guinea pig skin in vitro from gel, Franz cells (Example 4)
Excerpt: Adult guinea pigs of either sex (weight range 500 g-750 g) were used. The hair on the back flank and back was removed with the aid of depilatory wax (Arielle™) under halothane anaesthesia. Seven days later, after the stratum corneum had completely regenerated, the guinea pigs were killed and the skin removed and placed on a chilled slab. […] For in vivo experiments the guinea pigs were housed in individual cages and the topical hydroquinone formulations were applied to the hair-free areas. Each guinea pig received the test or control formulation on the corresponding contralateral site, thus allowing each animal to act as its own control.
Radiolabelled hydroquinone (C14, Amersham) was added to each of the topical formulations. At specified time intervals 200 microL of receptor solution was withdrawn with a micro-pipette and replaced with 200 microL of fresh normal saline. The 200 microL samples were added to 800 microL of water which in turn was added to 10 mL of scintillation cocktail consisting of Toluene™ 1L, PPO 5g, POPOP 0.1 g and Triton X™ 500 mL. The scintillation counting was performed on a Packard Tricarb 460C instrument. Disintegrations per minute were determined by an external standard procedure and calculated by the data system of the instrument.

[3] = type: physicochemical
Excerpt: Japanese patent JP 61-268631 to Showa Denko KK discloses dermal penetration enhancers suitable for use with water-soluble drugs. The dermal penetration enhancers disclosed include 1-5 carbon fatty acid esters of para-aminobenzoic acid but their chemical structures are quite distinct from the compounds used in the present invention, and the physicochemical properties of the 1-5 carbon fatty acid esters of para-aminobenzoic acid are markedly different to those of the present invention. For example the octanol-water partition coefficients for all the 1-5 carbon fatty acid esters of para-aminobenzoic acid are at least 200 fold lower than those of the present invention. Also the preferred dermal penetration enhancer disclosed in JP 61-268631 is the 2 carbon fatty acid ester of para-aminobenzoic acid (or Benzocaine) which has an octanol-water partition coefficient which is more than 8000 fold lower than those of the present invention. Unlike those of the present invention, the preferred dermal penetration enhancer disclosed in JP 61-268631 has significant pharmacological properties in that it is a local anaesthetic, which has also been reported to cause irritant and allergic skin reactions. […]

[4] = test system: full-thickness guinea pig skin in vivo; assay: Melanin content of guinea pig skin in vivo after topical hydroquinone solution (Example 4); details: for Enhancement ratio (enhancer/control): melanin content
Protocol: Melanin content was measured by reflectance absorbance from the treated and untreated skin according to the methods outlined in the PhD thesis of Anderson, J. R., titled The Development of Techniques for Measuring the Bioavailability of Topical Depigmenting Agents (School of Pharmaceutics, Victorian College of Pharmacy Ltd., Parkville, Victoria, Australia, Dec., 1985).

[5] = hairless, mouse, 2 % v/v
[6] = Flux of oestradiol, progesterone, norethisterone acetate, ibuprofen, flurbiprofen across shed snake skin, 5 microL/cm^2 (Example 11); type: in vitro ADME, Children's python; details: for Enhancement ratio: 24 h
Excerpt: (§1) Dermatol., 94; 235-240, 1990.
(§2) Degassing was repeated three times.
In order to further illustrate the present invention and the advantages thereof, the following specific examples are given, it being understood that same are intended only as illustrative and in nowise limitative. In the examples, the effectiveness of the dermal penetration enhancers are illustrated by measuring the skin penetration of physiologically active agents. Also, the skin penetration of the dermal penetration enhancers of this invention were compared with that of other penetration enhancers as well as formulations of bio-affecting agents with common adjuvants. The comparisons made generally consisted of measuring the relative penetration through shed snake skin of the various formulations. In the examples, the in vitro skin penetration studies were performed using the same in vitro diffusion cell apparatus as previously mentioned.
The two penetration enhancers given as examples are octyl dimethyl PABA and Azone. Both penetration enhancers were again at a concentration of 8% v/v within the formulations and control was without a penetration enhancer. A concentration of 2% w/v oestradiol was used in the formulation and detection wavelength was 212 nm and the mobile phase consisted of acetonitrile:water (40%:60%).

[7] = Children's python, 24 h, 2 % v/v
[8] = type: in vitro ADME, Children's python
Excerpt: as §1, §2
The control formulation contained no penetration enhancer. The detection wavelength was 242 nm and the mobile phase consisted of acetonitrile:water (35%:65%).

[9] = Ibuprofen penetration across full-thickness hairless mouse skin in vitro (Example 5); details: control, no enhancer; 2% w/v ibuprofen in 70% aqueous ethanol
[10] = in vivo, Bartek et al. 1972; cited from earlier work
[11] = Testosterone flux across shed snake skin, finite dose 5 microL/cm^2 (Example 10); details: control, no enhancer, 12% w/v testosterone in absolute ethanol
Protocol: as §1, §2
The volume of each formulation applied to the skin was 5 microL/cm^2. Each formulation contained 12% w/v testosterone in absolute ethanol. The dose was applied with a GC syringe.
Samples were assayed for testosterone by HPLC as shown before in Example 6.

[12] = Testosterone clearance after intravenous bolus in pigs (Example 13); type: in vivo, domestic weanling pig; details: pig, plasma, bolus dose of intravenous testosterone
[13] = Testosterone penetration across dermatomed neonate porcine skin in vitro (Example 6); type: in vitro ADME; details: control, no enhancer; 12% w/v testosterone in absolute ethanol
Excerpt: as §2

[14] = Diffusion of ketoprofen across shed snake skin after pretreatment with enhancer (Example 1); details: control, no enhancer: 70% aqueous ethanol alone for 2 hours before 2% ketoprofen; 24 h
[15] = Ketoprofen flux from transdermal patch across snake skin (Example 9); type: in vitro ADME, Children's python; details: control transdermal patch without enhancer, over 24 h
Protocol: as §1, §2
The patches were prepared by dissolving 300 mg of ketoprofen, 400 mg of penetration enhancer, 300 mg of polyethylene glycol 400 and 800 mg of hydroxypropylcellulose in 20 mL of ethanol and stirring until viscous. This was then poured onto a clean glass plate and dried at 40 degrees Celsius for 1 h. The thickness of this film was approximately 1 mm. Circles of 0.8 cm^2 were then cut out of this matrix and stuck onto the middle of 2.0 cm^2 circles of OPSITE™ adhesive bandage. This patch was then stuck onto 2.0 cm^2 pieces of snake skin and placed in the diffusion cell. The ketoprofen content of each patch formulation was determined by HPLC in triplicate and found to be 6.99+/−0.30 mg/cm^2 and 6.76+/−0.24 mg/cm^2, for the control and octyl salicylate patches respectively (mean content+/−std error, […]).

[16] = Diffusion of ketoprofen across snake skin, enhancer included in the formulation (Example 3); details: control, no enhancer; 2% w/v ketoprofen in 70% aqueous ethanol; 24 h
[17] = Diffusion of indomethacin (Indospray) across snake skin after pretreatment with Octyl dimethyl PABA (Example 2); type: in vitro ADME; details: Children's python, 24 h
Protocol: as §1, §2
10 microL of increasing concentrations of Octyl dimethyl PABA in absolute ethanol were applied 30 mins prior to the application of the indomethacin formulation. The control experiment involved application of 10 microL of absolute ethanol alone 30 mins prior to the application of the indomethacin formulation. Samples were assayed according to the method described previously.

[18] = Children's python, 24 h, 8 % v/v

For `CC(=O)[C@H]1CC[C@H]2[C@@H]3CCC4=CC(=O)CC[C@]4(C)[C@H]3CC[C@]12C` [Progesterone, progesterone], the “Mean flux +/− std error of progesterone” value ([1]; 24 h, 6 % w/v) was 0.40 +/− 0.02 microg/cm^2 · h.

With `CCCCC(CC)COC(=O)C=Cc1ccc(OC)cc1` (centres unmarked) [PARSOL ® MCX] the Flux of hydroquinone ([2]; HQ gel 15 mg/cm^2 with enhancer (PARSOL MCX 3% v/v, ESCALOL 507 3% v/v, AZONE 5% v/v as in row)) was 0.93 ± 0.19 % dose/h and the “Enhancement ratio (enhancer/control)” value ([2]; hydroquinone flux from gel, guinea pig skin in vitro) was 2.7.

For `CCOC(=O)c1ccc(N)cc1` [Benzocaine, 2 carbon fatty acid ester of para-aminobenzoic acid], the “octanol-water partition coefficient, fold lower than those of the present invention” value [3] was “more than 8000 fold”.

With `C#C[C@]1(OC(C)=O)CC[C@H]2[C@@H]3CCC4=CC(=O)CC[C@@H]4[C@H]3CC[C@@]21C` [Norethisterone acetate, norethisterone acetate] the “Mean flux +/− std error of norethisterone acetate” value ([1]; 24 h, 6 % w/v) was 0.14 +/− 0.02 microg/cm^2 · h.

For `CCCCCCCCCCCCN1CCCCCC1=O` [Azone, 1-dodecal-azacycloheptane-2-one], the Melanin content ([4]; HQ 2% w/v with enhancer 2% v/v, finite dose solution 5 microL/cm^2) was 39.5 ± 9.6 μg/cm^2, the “Enhancement ratio (enhancer/control)” value ([4]; HQ 2% w/v with enhancer 2% v/v versus HQ 2% w/v control) was 0.93 and the “median amount of ibuprofen penetrated after 12 hours” value (shortened to “median amount … after 12 hours”) [5] was 1036* μg/cm^2. The “median amount of ibuprofen penetrated after 24 hours” value (“median amount … after 24 hours” below) [5] was 2684* μg/cm^2, the “Mean flux +/− std error of flurbiprofen” value ([1]; 8 % v/v) was 2.05 +/− 0.42 microg/cm^2 · h and the “Mean flux +/− std error of ibuprofen” value ([1]; 8 % v/v) was 13.53 +/− 1.38 microg/cm^2 · h. The “Mean flux +/− std error of norethisterone acetate” value ([1]; 8 % v/v) was 0.16 +/− 0.02 microg/cm^2 · h, the “Mean flux +/− std error of progesterone” value ([1]; 24 h, 8 % v/v) was 2.17 +/− 0.33 microg/cm^2 · h and the “Mean flux +/− std error of oestradiol” value ([6]; Children's python, 8 % v/v) was 0.40 +/− 0.05 microg/cm^2 · h. It also gave an Enhancement ratio ([6]; Children's python, 8 % v/v) of 5.4 and an Enhancement ratio [7] of 3.6.

For `C[C@]12CC[C@@H]3c4ccc(O)cc4CC[C@H]3[C@@H]1CC[C@@H]2O` [Oestradiol, oestradiol], the “Mean flux +/− std error of oestradiol” value ([6]; control without penetration enhancer, 2% w/v oestradiol) was 0.06 +/− 0.01 microg/cm^2 · h.

For `C[C@]12CCC(=O)C=C1CC[C@@H]1[C@@H]2[C@@H](O)C[C@@]2(C)[C@H]1CC[C@]2(O)C(=O)CO` [hydrocortisone], the “Mean flux +/− std error of hydrocortisone” value ([8]; control, no enhancer, 1% w/v hydrocortisone in 70% aqueous ethanol) was 0.14 +/− 0.04 microg/cm^2.h.

For `CC(C)Cc1ccc(C(C)C(=O)O)cc1` (centres unmarked) [Ibuprofen, ibuprofen], the “Mean flux +/− std error of ibuprofen” value ([1]; 20 %) was 5.39 +/− 0.50 microg/cm^2 · h, the “median amount … after 12 hours” value [9] was 474 μg/cm^2 and the “median amount … after 24 hours” value [9] was 1819 μg/cm^2.

For `C[C@]12CC[C@H]3[C@@H](CCC4=CC(=O)CC[C@@]43C)[C@@H]1CC[C@@H]2O` [testosterone], the “permeability in human skin compared with pig skin, fold lower” value [10] is given as 2.2 fold, the “Mean flux +/− std error of testosterone” value [11] is given as 0.70 +/− 0.03 microg/cm^2.h and the clearance [12] is given as 11.1 mL/min/kg. For the same compound, the “mean amount of testosterone penetrated after 4 hours” value [13] was 4 ± 1 μg/cm^2 and the “mean amount of testosterone penetrated after 24 hours” value [13] was 13 ± 2 μg/cm^2.

For `Oc1ccc(O)cc1` [HQ, hydroquinone], the Melanin content ([4]; HQ 1% w/v control, no enhancer, 5 microL/cm^2) was 57.5 ± 3.7 μg/cm^2, the Melanin content ([4]; HQ 2% w/v control, no enhancer, 5 microL/cm^2) was 36.8 ± 8.1 μg/cm^2 and the Flux of hydroquinone ([2]; control gel, no enhancer, 15 mg/cm^2) was 0.35 ± 0.10 % dose/h.

In the case of `CC(C(=O)O)c1ccc(-c2ccccc2)c(F)c1` (centres unmarked) [Flurbiprofen, flurbiprofen], the “Mean flux +/− std error of flurbiprofen” value ([1]; 20 %) is reported as 0.81 +/− 0.05 microg/cm^2 · h.

With `CC(C(=O)O)c1cccc(C(=O)c2ccccc2)c1` (centres unmarked) [ketoprofen] the “Mean flux +/− std error of ketoprofen” value [14] was 0.96 ± 0.18 microg/cm^2.h, the “Mean flux +/− std error of ketoprofen” value [15] was 0.47 ± 0.04 microg/cm^2.h and the “Mean flux +/− std error of ketoprofen” value [16] was 0.78 ± 0.07 microg/cm^2.h.

With `CCCCC(CC)COC(=O)c1ccc(N(C)C)cc1` (centres unmarked) [Octyl dimethyl PABA, Octyl dimethyl-para-aminobenzoate] the Melanin content ([4]; HQ 1% w/v with enhancer 2% v/v, finite dose solution 5 microL/cm^2) was 38.2 ± 3.1 μg/cm^2, the “Enhancement ratio (enhancer/control)” value ([4]; HQ 1% w/v with enhancer 2% v/v versus HQ 1% w/v control) was 1.5 and the “median amount … after 12 hours” value [5] was 1123* μg/cm^2. For the same compound, the “median amount … after 24 hours” value [5] was 2981* μg/cm^2, the “Mean flux +/− std error of flurbiprofen” value ([1]; 8 % v/v) was 2.91 +/− 0.30 microg/cm^2 · h and the “Mean flux +/− std error of ibuprofen” value ([1]; 8 % v/v) was 13.16 +/− 1.21 microg/cm^2 · h. For the same compound, the “Mean flux +/− std error of norethisterone acetate” value ([1]; 8 % v/v) was 1.85 +/− 0.07 microg/cm^2 · h, the “Mean flux +/− std error of progesterone” value ([1]; 24 h, 8 % v/v) was 0.95 +/− 0.03 microg/cm^2 · h and the Enhancement ratio ([17]; 1.6 % v/v) was 1.2. For the same compound, the “Mean flux +/− std error of indomethacin” value ([17]; 1.6 % v/v) was 1.43 +/− 0.14 microg.cm^2.h, the Enhancement ratio ([17]; 3.2 % v/v) was 1.4 and the “Mean flux +/− std error of indomethacin” value ([17]; 3.2 % v/v) was 1.71 +/− 0.32 microg.cm^2.h. For the same compound, the Enhancement ratio ([17]; 6.4 % v/v) was 1.6, the “Mean flux +/− std error of indomethacin” value ([17]; 6.4 % v/v) was 1.94 +/− 0.09 microg.cm^2.h and the “Mean flux +/− std error of oestradiol” value ([6]; Children's python, 8 % v/v) was 0.26 +/− 0.01 microg/cm^2 · h. It also gave an Enhancement ratio ([6]; Children's python, 8 % v/v) of 2.4, an Enhancement ratio [7] of 3.5 and an Enhancement ratio [8, 18] of 5.8. For the same compound, the “Mean flux +/− std error of hydrocortisone” value [8, 18] was 0.79 +/− 0.06 microg/cm^2.h and the “Enhancement ratio (enhancer/control)” value ([2]; both, guinea pig, 3 % v/v) was 2.9.
